Results on 18 compounds are retold here after patent US12286428B2 (BRISTOL-MYERS SQUIBB COMPANY, priority 2019, dated 2025).

Each structure is given as a SMILES string.

The target of one assay is T1, IRAK4 (Homo sapiens, UniProt Q9NWZ3).
T1 sequence (Q9NWZ3 1-460): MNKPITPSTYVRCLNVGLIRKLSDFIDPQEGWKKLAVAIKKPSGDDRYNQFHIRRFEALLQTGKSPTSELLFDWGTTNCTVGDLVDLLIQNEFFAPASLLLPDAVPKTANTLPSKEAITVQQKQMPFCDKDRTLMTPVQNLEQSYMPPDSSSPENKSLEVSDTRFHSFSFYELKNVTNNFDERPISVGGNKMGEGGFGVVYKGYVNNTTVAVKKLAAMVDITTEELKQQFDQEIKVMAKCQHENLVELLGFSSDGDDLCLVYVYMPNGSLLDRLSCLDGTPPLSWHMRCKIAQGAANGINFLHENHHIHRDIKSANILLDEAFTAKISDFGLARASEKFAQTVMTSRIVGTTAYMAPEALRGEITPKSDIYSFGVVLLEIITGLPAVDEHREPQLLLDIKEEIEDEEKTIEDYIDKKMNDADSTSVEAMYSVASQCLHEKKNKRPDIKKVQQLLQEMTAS
The assay can be described thus: IRAK4 Inhibition Assay. It is filed as biochemical. The conditions noted are these: ATP 500 μM, IRAK4 0.6 nM, 60 min room temperature, Caliper LABCHIP 3000. The procedure: The assays were performed in U-bottom 384-well plates. […] The reaction was initiated by the combination of IRAK4 with substrates and test compounds. The reaction mixture was incubated at room temperature for 60 min. and terminated by adding 45 μL of 35 mM EDTA to each sample. The reaction mixture was analyzed on the Caliper LABCHIP® 3000 (Caliper, Hopkinton, MA) by electrophoretic separation of the fluorescent substrate and phosphorylated product. […] The final concentrations of reagents in the assays are ATP, 500 μM; FL-[…] peptide 1.5 μM; IRAK4, 0.6 nM; and DMSO, 1.6%.

Assay [1] deals with Human whole blood, IL-6 levels after TLR2 agonist lipoteichoic acid. The assay can be described thus: IRAK4 Whole Blood Assay. The settings on record: compounds 60 minutes at 37° C., lipoteichoic acid 10 μg/mL for 5 hours. It is filed as cell-based. The procedure: IRAK4 Whole Blood Assay Human whole blood containing the anti-coagulant ACD-A was plated in 384-well plate (25 μL/well) and incubated with compounds for 60 minutes at 37° C. in a 5% CO2 incubator. The blood was stimulated with a TLR2 agonist, 10 μg/mL final concentration of lipoteichoic acid (Invivogen, San Diego, CA) in 25 μL RPMI (Gibco) for 5 hours in a 5% CO2 incubator. At the end of the incubation, plates were centrifuged at 2300 rpm for 5 minutes. Supernatants were harvested and analyzed for IL-6 levels by Flow Cytometry beads assay (BD Biosciences, San Jose, CA).

Setting [2] is: FL-IPTSPITTTYFFFKKK peptide […].

A word on the IC50: it is the point on the concentration scale where inhibition reaches its midpoint. With `CC[C@H]1[C@@H](COc2nccc3cc(C(N)=O)c4nccn4c23)NC(=O)C1(F)F` [Example 20, 1-(((2S,3S)-3-ethyl-4,4-difluoro-5-oxopyrrolidin-2-yl)methoxy)imidazo[1,2-a][1,7]naphthyridine-6-carboxamide], the results for the IC50 (on IRAK4 (setting [2]); in assay [1]) were 8.8 nM and 158 nM, respectively.

In the case of `CC[C@H]1[C@@H](COc2nccc3cc(C(N)=O)c4nc(C)cn4c23)NC(=O)C1(F)F` [Example 21, 1-(((2S,3S)-3-ethyl-4,4-difluoro-5-oxopyrrolidin-2-yl)methoxy)-8-methylimidazo[1,2-a][1,7]naphthyridine-6-carboxamide], the half-inhibitory concentration (IC50) at IRAK4 (setting [2]) was found to be 10.7 nM; in assay [1] it was 533 nM.

For `CC[C@@H]1OC(=O)N[C@@H]1COc1nccc2cc(C(N)=O)c3nccn3c12` [Example 22, 1-(((4R,5S)-5-ethyl-2-oxooxazolidin-4-yl)methoxy)imidazo[1,2-a][1,7]naphthyridine-6-carboxamide], the 50% inhibitory concentration (IC50) on IRAK4 (setting [2]) came out at 2.1 nM; in assay [1] it was 4780 nM.

As for `CC[C@@H]1[C@H](F)C(=O)N[C@@H]1COc1cccc2cc(C(N)=O)n3nccc3c12` [Example 34, 10-(((2S,3S,4S)-3-ethyl-4-fluoro-5-oxopyrrolidin-2-yl)methoxy)pyrazolo[5,1-a]isoquinoline-5-carboxamide], the IC50 on IRAK4 (setting [2]) turned out to be 0.9 nM; in assay [1], 279 nM.

Regarding `CC[C@@H]1CC(=O)N[C@@H]1COc1cccc2cc(C(N)=O)n3nccc3c12` [Example 35, 10-(((2S,3R)-3-ethyl-5-oxopyrrolidin-2-yl)methoxy)pyrazolo[5,1-a]isoquinoline-5-carboxamide], the IC50 on IRAK4 (setting [2]) is 2.6 nM; in assay [1], 1650 nM.

Take `CC[C@@H]1[C@H](F)C(=O)N[C@@H]1COc1nccc2cc(C(N)=O)n3nccc3c12` [Example 36, 1-(((2S,3S,4S)-3-ethyl-4-fluoro-5-oxopyrrolidin-2-yl)methoxy)pyrazolo[5,1-a][2,7]naphthyridine-6-carboxamide]: the figures for the IC50 (on IRAK4 (setting [2]); in assay [1]) were 0.7 nM and 159 nM, respectively.

On to `CC[C@@H]1CC(=O)N[C@@H]1COc1cccc2cc(C(N)=O)c3ncnn3c12` [Example 37, 9-(((2S,3R)-3-ethyl-5-oxopyrrolidin-2-yl)methoxy)-[1,2,4]triazolo[1,5-a]quinoline-4-carboxamide], for which the results for the IC50 (at IRAK4 (setting [2]); in assay [1]) were 3.4 nM and 586 nM, respectively.

Consider `CC[C@H]1[C@@H](COc2cccc3cc(C(N)=O)c4ncnn4c23)NC(=O)C1(F)F` [Example 39, 9-(((2S,3S)-3-ethyl-4,4-difluoro-5-oxopyrrolidin-2-yl)methoxy)-[1,2,4]triazolo[1,5-a]quinoline-4-carboxamide], for which the IC50 came out at 15.9 nM on IRAK4 (setting [2]) and 78 nM in assay [1].

Take `CC[C@@H]1CC(=O)N[C@@H]1COc1cccc2cc(C(N)=O)c3nnnn3c12` [Example 44, 9-(((2S,3R)-3-ethyl-5-oxopyrrolidin-2-yl)methoxy)tetrazolo[1,5-a]quinoline-4-carboxamide]: the IC50 came to 9.6 nM on IRAK4 (setting [2]) and 1030 nM in assay [1].

Take `CC[C@@H]1CC(=O)N[C@@H]1COc1nccc2cc(C(N)=O)c3ncnn3c12` [Example 46, 9-(((2S,3R)-3-ethyl-5-oxopyrrolidin-2-yl)methoxy)-[1,2,4]triazolo[1,5-a][1,7]naphthyridine-4-carboxamide]: the IC50 on IRAK4 (FL-[…] peptide 1.5 μM) was determined as 9.7 nM; in assay [1] it was 1080 nM.

As to `CC[C@H]1[C@@H](COc2nccc3cc(C(N)=O)c4ncnn4c23)NC(=O)C1(F)F` [Example 48, 9-(((2S,3S)-3-ethyl-4,4-difluoro-5-oxopyrrolidin-2-yl)methoxy)-[1,2,4]triazolo[1,5-a][1,7]naphthyridine-4-carboxamide], the IC50 amounted to 16.9 nM on IRAK4 (setting [2]) and 2250 nM in assay [1].

As for `CC[C@@H]1CC(=O)N[C@@H]1COc1nccc2cc(C(N)=O)c3nc(C)nn3c12` [Example 49, 9-(((2S,3R)-3-ethyl-5-oxopyrrolidin-2-yl)methoxy)-2-methyl-[1,2,4]triazolo[1,5-a][1,7]naphthyridine-4-carboxamide], the results for the IC50 (on IRAK4 (setting [2]); in assay [1]) were 29.1 nM and 2020 nM, respectively.

For the compound `CC[C@@H]1CC(=O)N[C@@H]1COc1nccc2cc(C(N)=O)c3c(c12)CCO3` [Example 54, 1-(((2S,3R)-3-ethyl-5-oxopyrrolidin-2-yl)methoxy)-8,9-dihydrofuro[2,3-h]isoquinoline-6-carboxamide], the values for the IC50 (on IRAK4 (setting [2]); in assay [1]) were 13.6 nM and 1100 nM, respectively.

`CC[C@@H]1CC(=O)N[C@@H]1COc1nccc2cc(C(N)=O)c3ncccc3c12` [Example 55, 1-(((2S,3R)-3-ethyl-5-oxopyrrolidin-2-yl)methoxy)-2,7-phenanthroline-6-carboxamide]: the IC50 stood at 15.3 nM at IRAK4 (setting [2]) and 879 nM in assay [1].

Turning to `CC[C@@H]1[C@H](F)C(=O)N[C@@H]1COc1nccc2cc(C(N)=O)c3ncccc3c12` [Example 56, 1-(((2S,3S,4S)-3-ethyl-4-fluoro-5-oxopyrrolidin-2-yl)methoxy)-2,7-phenanthroline-6-carboxamide], the IC50 on IRAK4 (setting [2]) stood at 2.8 nM; in assay [1] it was 2130 nM.

In the case of `CC[C@@H]1CC(=O)N[C@@H]1COC1=CC(F)=CC2C=C(C(N)=O)c3nccn3C12` (stereo partly drawn) [Example 57, 9-(((2S,3R)-3-ethyl-5-oxopyrrolidin-2-yl)methoxy)-7-fluoro-5a,9a-dihydroimidazo[1,2-a]quinoline-4-carboxamide], the values for the 50% inhibitory concentration (IC50) (on IRAK4 (setting [2]); in assay [1]) were 9.7 nM and 1460 nM, respectively.

Consider `CC[C@@H]1[C@H](F)C(=O)N[C@@H]1COC1=CC(F)=CC2C=C(C(N)=O)c3nccn3C12` (stereo partly drawn) [Example 58, 9-(((2S,3S,4S)-3-ethyl-4-fluoro-5-oxopyrrolidin-2-yl)methoxy)-7-fluoro-5a,9a-dihydroimidazo[1,2-a]quinoline-4-carboxamide], for which the figures for the IC50 (at IRAK4 (setting [2]); in assay [1]) were 15.4 nM and 4230 nM, respectively.

Take `CC[C@@H]1[C@H](F)C(=O)N[C@@H]1COC1=CC=CC2C=C(C(N)=O)n3nc(C)cc3C12` (stereo partly drawn) [Example 62, 10-(((2S,3S,4S)-3-ethyl-4-fluoro-5-oxopyrrolidin-2-yl)methoxy)-2-methyl-6a,10a-dihydropyrazolo[5,1-a]isoquinoline-5-carboxamide]: the half-inhibitory concentration (IC50) on IRAK4 (setting [2]) came out at 2.3 nM; in assay [1] it was 2510 nM.
